Measured values as given in PubChem BioAssay AID330 (DTP/NCI, 2004).
“And” between values parts separate entries of the source, which are not always exact repeats. Equal entries are not always repeated. Inconclusive results and toxic doses are left out.

Test system: P388 leukemia ip, CD2F1 mice, survival T/C
Assay: NCI In Vivo Anticancer Drug Screen. Data for tumor model P388 Leukemia (intraperitoneal) in CD2F1 (CDF1) mice
Conditions: endpoint: median survival time, higher = longer survival
Summary of the method: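 Mice carrying the transplanted tumor received test compound or vehicle. Survival was recorded in each group, and the value is the treated-group measurement divided by that of the vehicle-treated control group.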

[1] = dose: 60.0 mg/kg/injection, schedule: Q01DX005 (ip), vehicle: saline with Tween-80
[2] = dose: 120.0 mg/kg/injection, schedule: Q01DX005 (ip), vehicle: saline with Tween-80
[3] = dose: 240.0 mg/kg/injection, schedule: Q01DX005 (ip), vehicle: saline with Tween-80
[4] = dose: 50.0 mg/kg/injection, schedule: Q01DX005 (ip), vehicle: Klucel (hydroxypropylcellulose) (HPC)

For `S=C(N/N=C/c1ccc(Cl)s1)NC12CC3CC(CC(C3)C1)C2`, the T/C (dose: 30.0 mg/kg/injection, schedule: Q01DX005 (ip), vehicle: Klucel (hydroxypropylcellulose) (HPC)) was 87 % of control, the T/C (dose: 60.0 mg/kg/injection, schedule: Q01DX005 (ip), vehicle: Klucel (hydroxypropylcellulose) (HPC)) was 93 % of control and the T/C (dose: 120.0 mg/kg/injection, schedule: Q01DX005 (ip), vehicle: Klucel (hydroxypropylcellulose) (HPC)) was 102 % of control. The T/C (dose: 240.0 mg/kg/injection, schedule: Q01DX005 (ip), vehicle: Klucel (hydroxypropylcellulose) (HPC)) was 100 % of control.
In the case of `CC1CCCN(c2cc3nc[nH]c(=O)c3cc2[N+](=O)[O-])C1` (configuration not stated), the T/C (dose: 100.0 mg/kg/injection, schedule: Q04DX003 (ip), vehicle: Klucel (hydroxypropylcellulose) (HPC)) was 103 % of control, the T/C (dose: 200.0 mg/kg/injection, schedule: Q04DX003 (ip), vehicle: Klucel (hydroxypropylcellulose) (HPC)) was 100 % of control and the T/C (dose: 400.0 mg/kg/injection, schedule: Q04DX003 (ip), vehicle: Klucel (hydroxypropylcellulose) (HPC)) was 99 % of control.
In the case of `Cc1ccc(S(=O)(=O)SSN2CCCCC2)cc1`, the T/C [1] was 99 % of control, the T/C [2] was 101 % of control and the T/C [3] was 99 % of control.
For `COc1ccc2c(c1)CC[C@@H]1[C@@H]2CC[C@]2(C)C(=O)/C(=C/C=C/N(C)C)C[C@@H]12`, the T/C (dose: 12.5 mg/kg/injection, schedule: Q01DX005 (ip), vehicle: saline with Tween-80) was 90 % of control, the T/C (dose: 25.0 mg/kg/injection, schedule: Q01DX005 (ip), vehicle: saline with Tween-80) was 91 % of control and the T/C (dose: 50.0 mg/kg/injection, schedule: Q01DX005 (ip), vehicle: saline with Tween-80) was 87 % of control and 89 % of control.
`CCCCCCCCCCCC1C(C#N)C(=O)NC(=O)C1C#N` (configuration not stated) was tested, and the T/C (dose: 50.0 mg/kg/injection, schedule: Q01DX009 (ip), vehicle: Klucel (hydroxypropylcellulose) (HPC)) was 103 % of control, the T/C (dose: 100.0 mg/kg/injection, schedule: Q01DX009 (ip), vehicle: Klucel (hydroxypropylcellulose) (HPC)) was 94 % of control and the T/C (dose: 200.0 mg/kg/injection, schedule: Q01DX009 (ip), vehicle: Klucel (hydroxypropylcellulose) (HPC)) was 100 % of control.
In the case of `Nc1nc2nc(-c3ccccc3)nc(N)c2nc1C(=O)NN1CCCCC1`, the T/C (dose: 37.5 mg/kg/injection, schedule: Q01DX009 (ip), vehicle: saline with Tween-80) was 100 % of control, the T/C (dose: 75.0 mg/kg/injection, schedule: Q01DX009 (ip), vehicle: saline with Tween-80) was 87 % of control and the T/C (dose: 150.0 mg/kg/injection, schedule: Q01DX009 (ip), vehicle: saline with Tween-80) was 100 % of control.
In the case of `O=[N+]([O-])c1ccc(/C=C\S(=O)(=O)OCCCl)cc1`, the T/C [4] was 100 % of control.
`NC(N)=NCCCC(N)C(=O)CC(Cc1ccccc1)C(=O)O` (configuration not stated) was tested, and the T/C (dose: 8.8 mg/kg/injection, schedule: Q01DX005 (ip), vehicle: water) was 104 % of control, the T/C (dose: 17.0 mg/kg/injection, schedule: Q01DX005 (ip), vehicle: water) was 108 % of control and the T/C (dose: 34.0 mg/kg/injection, schedule: Q01DX005 (ip), vehicle: water) was 106 % of control. The T/C (dose: 68.0 mg/kg/injection, schedule: Q01DX005 (ip), vehicle: water) was 100 % of control.
For `Cc1ccc2c(c1)-c1oc(=O)c(C(N)=O)cc1C(C)O2` (configuration not stated), the T/C [1] was 92 % of control, the T/C [2] was 89 % of control and the T/C [3] was 87 % of control.
For `CC(C)(C)NC=C(C#N)C#N`, the T/C (dose: 50.0 mg/kg/injection, schedule: Q01DX009 (ip), vehicle: saline with Tween-80) was 86 % of control.
With `COC1/C=C/OC2(C)Oc3c(C)c(O)c4c(c3C2=O)C(=O)C=C(NC(=O)/C(C)=C\C=C\C(C)C2OC(C)(C)OC(C(C)C(=O)C1C)C2C)C4=O` (configuration not stated) the T/C (dose: 100.0 mg/kg/injection, schedule: Q01DX001 (ip), vehicle: saline with Tween-80) was 103 % of control, the T/C (dose: 200.0 mg/kg/injection, schedule: Q01DX001 (ip), vehicle: saline with Tween-80) was 95 % of control and the T/C (dose: 400.0 mg/kg/injection, schedule: Q01DX001 (ip), vehicle: saline with Tween-80) was 100 % of control.
In the case of `CNC(=O)OCC[N+](C)(C)C`, the T/C (dose: 3.12 mg/kg/injection, schedule: Q01DX009 (ip), vehicle: saline) was 101 % of control and the T/C (dose: 6.25 mg/kg/injection, schedule: Q01DX009 (ip), vehicle: saline) was 101 % of control.
For `CCOc1nc(OC)c(Cc2c(OC)nc(OCC)c3c2CCCC3)c2c1CCCC2`, the T/C (dose: 47.5 mg/kg/injection, schedule: Q01DX005 (ip), vehicle: saline + Tween-80 + alcohol) was 102 % of control, the T/C (dose: 95.0 mg/kg/injection, schedule: Q01DX005 (ip), vehicle: saline + Tween-80 + alcohol) was 90 % of control and the T/C (dose: 190.0 mg/kg/injection, schedule: Q01DX005 (ip), vehicle: saline + Tween-80 + alcohol) was 87 % of control.
In the case of `COCC1=C(C)CC(CC(=O)OC)C1=O` (configuration not stated), the T/C (dose: 60.0 mg/kg/injection, schedule: Q01DX005 (ip), vehicle: saline) was 98 % of control, the T/C (dose: 120.0 mg/kg/injection, schedule: Q01DX005 (ip), vehicle: saline) was 98 % of control and the T/C (dose: 240.0 mg/kg/injection, schedule: Q01DX005 (ip), vehicle: saline) was 101 % of control.
With `NCCSSc1ccccc1C(=O)O` the T/C [4] was 102 % of control, the T/C (dose: 100.0 mg/kg/injection, schedule: Q01DX005 (ip), vehicle: Klucel (hydroxypropylcellulose) (HPC)) was 105 % of control and the T/C (dose: 200.0 mg/kg/injection, schedule: Q01DX005 (ip), vehicle: Klucel (hydroxypropylcellulose) (HPC)) was 112 % of control.
